Results from patent US20120077836A1, “METHODS OF ADMINISTERING (4AR,10AR)-1-N-PROPYL-1,2,3,4,4A,5,10,10A-OCTAHYDROBENZO [G] QUINOLINE-6,7-DIOL AND RELATED COMPOUNDS ACROSS THE ORAL MUCOSA, THE NASAL MUCOSA OR THE SKIN AND PHARMACEUTICAL COMPOSITIONS THEREOF” (priority 2009, published 2012).
Structures can show the parent of a compound that is named as a salt.

Key:
[1] = tested on: rats with unilateral 6-OHDA lesions; experiment: D1/D2 dissection, rotation response in rats with unilateral 6-OHDA lesions; format: in vivo, rat
From the text: Rats weighing 200-250 g were subjected to unilateral 6-OHDA lesions. […] Nemonapride is a D2 antagonist that blocks the D2 receptors, therefore any observed rotations would be dependent upon activity at the D1 receptors.

6-OHDA rats = experiment: Reversal of L-DOPA-induced dyskinesias in 6-OHDA rats (AIMS); format: in vivo, rat
From the text: Animals were observed on Days 1, 3 and 5 and AIMS were scored. The day 5 scores were then used to separate the animals into three groups of 6 animals each. Group 1 continued with daily L-DOPA treatment. […] Treatment continued daily for 10 days and the amount of dyskinesia was scored on days 1, 5, 9 and 10.

CCCN1CCC[C@@H]2Cc3c(ccc(O)c3O)C[C@H]21 [compound 10, (4aR,10aR)-1-n-Propyl-1,2,3,4,4a,5,10,10a-octahydro-benzo[g]quinoline-6,7-diol hydrobromide]
MED (minimum effective dose to induce rotation) ([1]; dosed SC, 6-OHDA rats): 0.65 µg/kg | MEDNemonapride (MED to overcome Nemonapride block) ([1]; dosed SC, 6-OHDA rats, * = rotations could not be blocked by SCH23390): 1.3 µg/kg | mixed D1/D2 ratio ([1]; subcutaneous, 6-OHDA rat rotation model): about 2 | dyskinesias versus other groups (two-way repeated measures ANOVA) (6-OHDA rats; L-DOPA-primed 6-OHDA rats, 10 days treatment): significantly fewer dyskinesias than both the pramipexole group and the L-DOPA/Benserazide group | mean AIM score (days 1, 5, 9, 10) (6-OHDA rats; after 7 days L-DOPA/Benserazide priming, once daily days 1-10: L-DOPA/Benserazide 6/15 mg/kg SC, compound 10 0.0013 mg/kg SC, pramipexole […] SC): 44
